Values quoted from earlier work as cited in patent publication US12075777B2, “Antimicrobial formulation” (Anitox Corporation, priority 2011, dated 2024).

Key:
[1] = system: Staphylococcus aureus, E. coli and Salmonella typhimurium
yeast = system: yeast; design: dose or concentration left out as unconfirmed; details: 10^5 CFU/bottle; equivalence: trans-2-hexenal with thermal treatment (56° C.) vs citral
[2] = 0, 0.1, 0.2, 0.3 and 0.4% in water
soybean seed = details: 1.8 of trans-2-hexenal/mL of air
[3] = system: A. flavus, P. notatum, A. alternate, F. oxysporum, Cladosporium species, B. subtilis and A. tumerfaciens
peaches and nectarines = details: at 40 μL/L
pears and apples = details: 12.5 μL/L; twenty four hours to seven days exposure

## CC/C=C/CC=O [(3E)-hexenal]
[1]
  effective level in controlling bacteria: 3 to 30 µg/mL

## CC(C)=CCCC(C)=CC=O [citral]
E. coli
  concentration in growth media that reduced the concentration of E. coli: more than 0.01%
  concentration with bactericidal effect: 0.08%
yeast
  concentration controlling yeast in beverages: 100-120 ppm

## CC(=O)O [acetic acid]
[2]
  effect on performance or intestinal microbial counts: did not affect performance or intestinal microbial counts

## CCC/C=C/C=O [trans-2-hexenal]
Soybean seed
  inhibition of soybean seed germination: ~100%
[3]
  concentration that completely inhibited growth: 8 ng/L air
Peaches and nectarines
  phytotoxicity: phytotoxic
4000 ppm in diet, 13 wk
  body weight and intake: reduction in body weight and intake, but it was not significant
Dietary levels of 0, 260, 640, 1600 or 4000 ppm fed for 13 wk
  changes in hematological parameters or organ weights: did not induce any changes
Pears and apples
  effect on fruit appearance, color, firmness, soluble solids content or titrateable acidity: did not affect
